Measured values published in the supplement of paper PMC12698765.
Structures can show the parent of a compound that is named as a salt. ± gives the standard deviation of the averaged measurements.

How the values were obtained:
[1] = system: 409B2 hiPSC (iCRISPR Cas9, FRMD7 editing); assay: cell survival relative to solvent control (fold (ratio to mock)); higher = more surviving cells
Procedure: (§1)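 Subset screen of 55 drugs tested at 5 concentrations around the effective screening dose, in 409B2 iCRISPR Cas9 hiPSCs editing FRMD7 with a ssDNA donor. Drugs were applied for 24 h. Viability was read by resazurin and editing outcomes by amplicon sequencing (HDR, NHEJ <2 bp microhomology, MMEJ ≥2 bp microhomology). Values are relative to solvent mock controls; two biological replicates.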

[2] = system: 409B2 hiPSC (iCRISPR Cas9, FRMD7 editing); assay: NHEJ-attributed indel frequency relative to solvent control (fold (ratio to mock)); higher = more NHEJ outcomes
Procedure: as §1

[3] = system: 409B2 hiPSC (iCRISPR Cas9, FRMD7 editing); assay: MMEJ-attributed deletion frequency relative to solvent control (fold (ratio to mock)); higher = more MMEJ outcomes
Procedure: as §1

[4] = system: 409B2 hiPSC (iCRISPR Cas9, FRMD7 editing); assay: HDR (precise edit) frequency relative to solvent control (fold (ratio to mock)); higher = more homology-directed repair outcomes
Procedure: as §1

| SMILES | cell survival ([1]; 20 nM) | cell survival ([1]; 50 nM) | cell survival ([1]; 200 nM) | cell survival ([1]; 500 nM) | cell survival ([1]; 2000 nM) | cell survival ([1]; 5000 nM) | NHEJ-attributed indel frequency ([2]; 20 nM) | NHEJ-attributed indel frequency ([2]; 50 nM) | NHEJ-attributed indel frequency ([2]; 200 nM) | NHEJ-attributed indel frequency ([2]; 500 nM) | NHEJ-attributed indel frequency ([2]; 2000 nM) | NHEJ-attributed indel frequency ([2]; 5000 nM) | MMEJ-attributed deletion frequency ([3]; 20 nM) | MMEJ-attributed deletion frequency ([3]; 50 nM) | MMEJ-attributed deletion frequency ([3]; 200 nM) | MMEJ-attributed deletion frequency ([3]; 500 nM) | MMEJ-attributed deletion frequency ([3]; 2000 nM) | MMEJ-attributed deletion frequency ([3]; 5000 nM) | HDR ([4]; 20 nM) | HDR ([4]; 50 nM) | further results |
| --- | --- | --- | --- | --- | --- | --- | --- | --- | --- | --- | --- | --- | --- | --- | --- | --- | --- | --- | --- | --- | --- |
| C[C@]12CC[C@@H]3c4ccc(O)cc4CC[C@H]3[C@@H]1C[C@@H](O)[C@@H]2O [Estriol] (in DMSO) | 0.994 | 1.11 | 1.02 | 0.944 | 0.929 | 1.19 | 0.994 ± 0.029 | 1.01 ± 0.0089 | 1.01 ± 0.018 | 1.02 ± 0.025 | 1.02 ± 0.015 | 0.988 ± 0.043 | 0.961 ± 0.14 | 0.901 ± 0.016 | 0.917 ± 0.12 | 0.932 ± 0.1 | 0.923 ± 0.2 | 0.996 ± 0.019 | 1.18 ± 0.038 | 1.03 ± 0.06 | cell survival ([1]; 100 nM): 0.907; cell survival ([1]; 10000 nM): 1.05; cell survival ([1]; 20000 nM): 0.994; cell survival ([1]; 50000 nM): 1.15; NHEJ-attributed indel frequency ([2]; 100 nM): 1.01 ± 0.039; NHEJ-attributed indel frequency ([2]; 10000 nM): 0.987 ± 0.043; NHEJ-attributed indel frequency ([2]; 20000 nM): 0.9898 ± 0.0067; NHEJ-attributed indel frequency ([2]; 50000 nM): 0.986 ± 0.047; MMEJ-attributed deletion frequency ([3]; 100 nM): 0.923 ± 0.1; MMEJ-attributed deletion frequency ([3]; 10000 nM): 1 ± 0.038; MMEJ-attributed deletion frequency ([3]; 20000 nM): 1.04 ± 0.014; MMEJ-attributed deletion frequency ([3]; 50000 nM): 0.971 ± 0.029; HDR ([4]; 100 nM): 1.02 ± 0.079; HDR ([4]; 200 nM): 1.04 ± 0.094; HDR ([4]; 500 nM): 1.08 ± 0.14; HDR ([4]; 2000 nM): 0.971 ± 0.021; HDR ([4]; 5000 nM): 1.12 ± 0.049; HDR ([4]; 10000 nM): 1.07 ± 0.019; HDR ([4]; 20000 nM): 1.11 ± 0.019; HDR ([4]; 50000 nM): 1.15 ± 0.078 |
| NCCS [2-Aminoethanethiol] (in DMSO) | 0.948 | 1.07 | 1.08 | 0.899 |  |  | 0.979 ± 0.0017 | 1.003 ± 0.0053 | 1 ± 0.022 | 1.02 ± 0.052 |  |  | 0.917 ± 0.035 | 0.862 ± 0.013 | 0.976 ± 0.074 | 1.04 ± 0.19 |  |  | 1.073 ± 0.0014 | 1.05 ± 0.08 | cell survival ([1]; 100 nM): 0.956; NHEJ-attributed indel frequency ([2]; 100 nM): 0.9962 ± 0.0046; MMEJ-attributed deletion frequency ([3]; 100 nM): 0.932 ± 0.18; HDR ([4]; 100 nM): 0.984 ± 0.019; HDR ([4]; 200 nM): 1.12 ± 0.029; HDR ([4]; 500 nM): 0.949 ± 0.16 |
| CC[C@@]1(O)C(=O)OCc2c1cc1n(c2=O)Cc2cc3c(CN(C)C)c(O)ccc3nc2-1 [Topotecan] (in DMSO) | 0.0825 | 0.0185 |  |  |  |  | 0.68 ± 0.029 | 0.625 ± 0.023 |  |  |  |  | 0.595 ± 0.26 | 0.699 ± 0.15 |  |  |  |  | 0.975 ± 0.16 | 0.321 ± 0.15 | cell survival ([1]; 2 nM): 0.777; cell survival ([1]; 5 nM): 0.814; cell survival ([1]; 10 nM): 0.361; NHEJ-attributed indel frequency ([2]; 2 nM): 0.951 ± 0.029; NHEJ-attributed indel frequency ([2]; 5 nM): 0.936 ± 0.04; NHEJ-attributed indel frequency ([2]; 10 nM): 0.896 ± 0.032; MMEJ-attributed deletion frequency ([3]; 2 nM): 1.13 ± 0.065; MMEJ-attributed deletion frequency ([3]; 5 nM): 1.04 ± 0.1; MMEJ-attributed deletion frequency ([3]; 10 nM): 0.835 ± 0.1; HDR ([4]; 2 nM): 1.11 ± 0.042; HDR ([4]; 5 nM): 1.07 ± 0.049; HDR ([4]; 10 nM): 0.938 ± 0.035 |
| CCc1c2c(nc3ccc(OC(=O)N4CCC(N5CCCCC5)CC4)cc13)-c1cc3c(c(=O)n1C2)COC(=O)[C@]3(O)CC [Irinotecan HCl Trihydrate] (in DMSO) |  |  | 0.618 | 0.158 | 0.00496 | 0.00337 |  |  | 0.914 ± 0.024 | 0.694 ± 0.021 | 0.439 ± 0.01 | 0.434 ± 0.028 |  |  | 0.853 ± 0.043 | 0.688 ± 0.013 | 0.541 ± 0.16 | 0.575 ± 0.049 |  |  | cell survival ([1]; 1000 nM): 0.0216; NHEJ-attributed indel frequency ([2]; 1000 nM): 0.617 ± 0.21; MMEJ-attributed deletion frequency ([3]; 1000 nM): 0.566 ± 0.31; HDR ([4]; 200 nM): 1.097 ± 0.0069; HDR ([4]; 500 nM): 0.954 ± 0.14; HDR ([4]; 1000 nM): 0.662 ± 0.22; HDR ([4]; 2000 nM): 0.16683 ± 7e-05; HDR ([4]; 5000 nM): 0.149 ± 0.016 |
| CN(C)C(=O)Oc1cccc([N+](C)(C)C)c1 [Hodostin] (in DMSO) |  |  |  |  | 0.969 | 1.28 |  |  |  |  | 0.983 ± 0.013 | 0.992 ± 0.024 |  |  |  |  | 0.943 ± 0.1 | 0.965 ± 0.13 |  |  | cell survival ([1]; 10000 nM): 1; cell survival ([1]; 20000 nM): 1.14; cell survival ([1]; 50000 nM): 1.29; NHEJ-attributed indel frequency ([2]; 10000 nM): 0.996 ± 0.04; NHEJ-attributed indel frequency ([2]; 20000 nM): 0.9928 ± 0.0066; NHEJ-attributed indel frequency ([2]; 50000 nM): 0.992 ± 0.029; MMEJ-attributed deletion frequency ([3]; 10000 nM): 0.922 ± 0.014; MMEJ-attributed deletion frequency ([3]; 20000 nM): 0.944 ± 0.085; MMEJ-attributed deletion frequency ([3]; 50000 nM): 1.05 ± 0.12; HDR ([4]; 2000 nM): 1.13 ± 0.068; HDR ([4]; 5000 nM): 1.1 ± 0.087; HDR ([4]; 10000 nM): 1.05 ± 0.15; HDR ([4]; 20000 nM): 1.15 ± 0.044; HDR ([4]; 50000 nM): 1.24 ± 0.054 |
